Test results reported in patent US11566022B2, “3-(5-methoxy-1-oxoisoindolin-2-yl)piperidine-2,6-dione derivatives and uses thereof” (NOVARTIS AG, priority 2019, dated 2023).

Molecular target: HiBit-WIZ fusion protein (Homo sapiens, UniProt O95785+Q96SW2)
Assay: Quantification of WIZ protein levels in HiBit tag fusion protein assay (WIZ HiBit assay in 293T cells)
Type: cell-based
Parameters: Dmax: dose or concentration left out as unconfirmed
Conditions: for % degradation of WIZ (100-Amax) / Dmax: 100 minus Amax; for % degradation of WIZ (100-Amax): at 25 uM; for % degradation of WIZ (100-Amax) / WIZ Amax / Dmax / remaining activity at up to 25 µM: 293T cells; for WIZ Amax / remaining activity at up to 25 µM: DMSO-normalized, curve-fitted percentage of WIZ-HiBit remaining at 25 uM; for DC50: WIZ HiBit assay in 293T cells, 10-point, 5-fold dose response, highest concentration 25 μM, about 18 hours, read-out: WIZ AC50; for Dmax / remaining activity at up to 25 µM: HEK-293T; for Dmax: read-out: % degradation of WIZ (100-Amax); for remaining activity at up to 25 µM: read-out: WIZ Amax

HiBit-WIZ fusion protein, sequence (O95785 whole entry, the tested form may be a part): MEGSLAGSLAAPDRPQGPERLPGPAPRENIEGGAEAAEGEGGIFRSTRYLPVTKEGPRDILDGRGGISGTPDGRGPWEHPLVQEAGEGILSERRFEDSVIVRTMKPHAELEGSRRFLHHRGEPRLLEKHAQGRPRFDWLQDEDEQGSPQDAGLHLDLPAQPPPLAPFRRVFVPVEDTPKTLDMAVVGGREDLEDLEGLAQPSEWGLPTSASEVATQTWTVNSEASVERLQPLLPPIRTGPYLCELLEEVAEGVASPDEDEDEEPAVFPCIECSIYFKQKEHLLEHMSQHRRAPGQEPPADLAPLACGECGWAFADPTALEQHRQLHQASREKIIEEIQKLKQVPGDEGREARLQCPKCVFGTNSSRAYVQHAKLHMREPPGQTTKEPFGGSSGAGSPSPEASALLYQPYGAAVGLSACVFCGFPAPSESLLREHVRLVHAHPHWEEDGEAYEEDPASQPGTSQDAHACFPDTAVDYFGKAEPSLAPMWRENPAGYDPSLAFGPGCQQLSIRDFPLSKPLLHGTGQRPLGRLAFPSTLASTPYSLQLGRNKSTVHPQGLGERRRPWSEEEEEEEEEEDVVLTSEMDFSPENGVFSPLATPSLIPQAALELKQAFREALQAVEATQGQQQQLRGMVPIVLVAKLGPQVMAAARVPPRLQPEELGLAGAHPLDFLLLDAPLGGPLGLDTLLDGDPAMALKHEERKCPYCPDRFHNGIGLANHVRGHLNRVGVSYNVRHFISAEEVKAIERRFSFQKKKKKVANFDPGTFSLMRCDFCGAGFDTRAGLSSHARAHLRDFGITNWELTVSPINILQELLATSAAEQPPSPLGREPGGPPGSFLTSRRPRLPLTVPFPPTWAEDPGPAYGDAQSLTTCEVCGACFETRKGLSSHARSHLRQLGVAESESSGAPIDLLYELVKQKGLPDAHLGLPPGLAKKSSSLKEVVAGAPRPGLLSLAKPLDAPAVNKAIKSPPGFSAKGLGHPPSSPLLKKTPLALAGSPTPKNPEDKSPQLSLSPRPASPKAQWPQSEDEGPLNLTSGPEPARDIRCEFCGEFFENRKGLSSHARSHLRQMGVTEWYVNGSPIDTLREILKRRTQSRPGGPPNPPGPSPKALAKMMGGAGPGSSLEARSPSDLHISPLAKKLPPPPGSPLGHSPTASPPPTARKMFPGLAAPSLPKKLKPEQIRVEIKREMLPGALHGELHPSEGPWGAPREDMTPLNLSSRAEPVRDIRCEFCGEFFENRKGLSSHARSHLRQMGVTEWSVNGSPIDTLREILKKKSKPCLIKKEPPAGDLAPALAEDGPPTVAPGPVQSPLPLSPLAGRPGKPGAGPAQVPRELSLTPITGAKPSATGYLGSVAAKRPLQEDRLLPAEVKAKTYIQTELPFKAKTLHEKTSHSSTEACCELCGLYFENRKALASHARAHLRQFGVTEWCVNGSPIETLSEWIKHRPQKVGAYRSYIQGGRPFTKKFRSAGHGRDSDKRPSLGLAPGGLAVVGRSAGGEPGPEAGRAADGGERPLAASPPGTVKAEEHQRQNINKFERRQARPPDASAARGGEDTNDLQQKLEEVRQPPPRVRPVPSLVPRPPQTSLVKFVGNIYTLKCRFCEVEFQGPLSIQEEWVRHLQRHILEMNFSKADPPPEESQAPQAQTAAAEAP
HiBit-WIZ fusion protein, sequence (Q96SW2 whole entry, the tested form may be a part): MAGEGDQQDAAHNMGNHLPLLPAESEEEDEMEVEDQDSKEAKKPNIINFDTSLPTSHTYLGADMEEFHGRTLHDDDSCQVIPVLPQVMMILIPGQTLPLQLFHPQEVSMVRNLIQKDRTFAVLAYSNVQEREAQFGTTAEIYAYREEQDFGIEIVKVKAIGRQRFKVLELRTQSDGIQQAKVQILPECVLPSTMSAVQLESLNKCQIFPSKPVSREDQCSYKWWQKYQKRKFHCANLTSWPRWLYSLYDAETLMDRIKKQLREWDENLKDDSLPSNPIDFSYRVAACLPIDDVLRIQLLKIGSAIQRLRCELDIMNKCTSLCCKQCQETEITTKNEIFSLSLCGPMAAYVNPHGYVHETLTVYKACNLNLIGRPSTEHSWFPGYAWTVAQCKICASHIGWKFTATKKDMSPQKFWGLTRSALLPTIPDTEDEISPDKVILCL
HiBit-WIZ fusion protein, sequence (Q16531 whole entry partner, the tested form may be a part): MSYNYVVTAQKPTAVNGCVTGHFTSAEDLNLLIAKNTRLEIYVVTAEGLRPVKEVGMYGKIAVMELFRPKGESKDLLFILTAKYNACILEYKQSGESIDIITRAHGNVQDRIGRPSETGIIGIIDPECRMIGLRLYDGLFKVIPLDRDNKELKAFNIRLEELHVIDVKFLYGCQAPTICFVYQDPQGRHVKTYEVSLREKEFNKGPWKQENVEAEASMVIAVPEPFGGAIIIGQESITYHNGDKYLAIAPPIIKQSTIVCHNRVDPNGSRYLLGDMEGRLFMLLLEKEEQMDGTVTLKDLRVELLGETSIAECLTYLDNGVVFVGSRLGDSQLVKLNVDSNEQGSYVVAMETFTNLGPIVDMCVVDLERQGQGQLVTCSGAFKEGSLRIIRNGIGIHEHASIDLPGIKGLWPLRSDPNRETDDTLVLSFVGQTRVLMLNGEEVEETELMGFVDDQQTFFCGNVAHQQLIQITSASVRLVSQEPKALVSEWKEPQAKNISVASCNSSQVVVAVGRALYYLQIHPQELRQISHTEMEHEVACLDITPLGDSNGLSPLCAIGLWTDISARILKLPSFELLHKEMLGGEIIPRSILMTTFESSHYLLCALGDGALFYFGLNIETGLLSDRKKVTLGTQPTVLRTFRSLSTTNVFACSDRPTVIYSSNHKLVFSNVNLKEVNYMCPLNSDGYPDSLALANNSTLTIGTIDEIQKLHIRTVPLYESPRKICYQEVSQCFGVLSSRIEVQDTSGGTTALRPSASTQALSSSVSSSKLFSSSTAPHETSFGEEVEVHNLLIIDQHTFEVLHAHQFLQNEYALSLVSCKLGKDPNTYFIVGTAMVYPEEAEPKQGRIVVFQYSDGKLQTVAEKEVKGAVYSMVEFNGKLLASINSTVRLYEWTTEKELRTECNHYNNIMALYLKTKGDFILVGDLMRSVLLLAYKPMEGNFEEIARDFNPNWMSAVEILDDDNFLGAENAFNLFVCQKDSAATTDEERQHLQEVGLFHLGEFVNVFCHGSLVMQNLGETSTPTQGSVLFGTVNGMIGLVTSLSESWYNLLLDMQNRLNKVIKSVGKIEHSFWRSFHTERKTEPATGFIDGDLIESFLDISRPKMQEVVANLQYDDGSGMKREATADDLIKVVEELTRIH

Row | Structure (SMILES) | % degradation of WIZ (100-Amax) | WIZ Amax | DC50 | Dmax | remaining activity at up to 25 µM
1 | CCN1C2CCC(C2)C1COc1ccc2c(c1)CN(C1CCC(=O)NC1=O)C2=O (single isomer, unassigned) [I-255 (Isomer 4), 3-(5-((endo-2-ethyl-2-azabicyclo[2.2.1]heptan-3-yl)methoxy)-1-oxoisoindolin-2-yl)piperidine-2,6-dione] | 73.0% | 27.0% | 0.034 µM |  | 
2 | O=C1CCC(N2Cc3cc(OC[C@@H]4CCCCN4C(=O)c4cc(-c5ccc(Br)cc5)on4)ccc3C2=O)C(=O)N1 (stereo partly drawn) [Compound I-72ak] |  |  | 0.686 µM | 78.9% | 21.1%
3 | O=C1CCC(N2Cc3cc(OC[C@H]4CCCCN4CC4CCN(C(=O)OCc5ccccc5)CC4)ccc3C2=O)C(=O)N1 (stereo partly drawn) [Compound I-50cl] |  |  | 0.644 µM | 77.7% | 22.3%
4 | CC(C)c1cc(C(=O)N2CCCC[C@H]2COc2ccc3c(c2)CN(C2CCC(=O)NC2=O)C3=O)n(C)n1 (stereo partly drawn) [Compound I-72gd] |  |  | 0.919 µM | 80.1% | 19.9%
5 | O=C1CCC(N2Cc3cc(OC[C@@H]4CCCCN4C(=O)CCc4c[nH]cn4)ccc3C2=O)C(=O)N1 (stereo partly drawn) [Compound I-72gk] |  |  | > 25 µM | 6.5% | 93.5%
6 | O=C1CCC(N2Cc3cc(OC[C@@H]4CCCCN4Cc4c(F)cccc4Cl)ccc3C2=O)C(=O)N1 (stereo partly drawn) [Compound I-50n] |  |  | 0.022 µM | 98.3% | 1.7%
7 | O=C1CCC(N2Cc3cc(OC[C@@H]4CCCCN4Cc4cccc(O)c4O)ccc3C2=O)C(=O)N1 (stereo partly drawn) [Compound I-50bx] |  |  | 21 µM | 56.4% | 43.6%
8 | N#Cc1ccccc1CN1CCCC[C@H]1COc1ccc2c(c1)CN(C1CCC(=O)NC1=O)C2=O (stereo partly drawn) [Compound I-50h] |  |  | 13.6 µM | 59.4% | 40.6%
9 | O=C1CCC(N2Cc3cc(OC[C@@H]4CCCCN4Cc4ccc[nH]c4=O)ccc3C2=O)C(=O)N1 (stereo partly drawn) [Compound I-50k] |  |  | > 25 µM | 34.7% | 65.3%
10 | O=C1CCC(N2Cc3cc(OC[C@@H]4CCCCN4Cc4ncc[nH]4)ccc3C2=O)C(=O)N1 (stereo partly drawn) [Compound I-50w] |  |  | > 25 µM | 25.9% | 74.1%
11 | O=C1CCC(N2Cc3cc(OC[C@@H]4CCCCN4C(=O)c4[nH]nc5c4CCCC5)ccc3C2=O)C(=O)N1 (stereo partly drawn) [Compound I-72ix] |  |  | > 25 µM | 13% | 87%
12 | O=C1CCC(N2Cc3cc(OC[C@@H]4CCCCN4C(=O)c4ccc(-c5ccc(F)cc5)cn4)ccc3C2=O)C(=O)N1 (stereo partly drawn) [Compound I-72fj] |  |  | 3.91 µM | 63.7% | 36.3%
13 | Nc1ncc(CN2CCCC[C@H]2COc2ccc3c(c2)CN(C2CCC(=O)NC2=O)C3=O)cn1 (stereo partly drawn) [Compound I-50be] |  |  | > 25 µM | 41.9% | 58.1%
14 | CCOC(=O)c1cccc2[nH]nc(CN3CCCC[C@H]3COc3ccc4c(c3)CN(C3CCC(=O)NC3=O)C4=O)c12 (stereo partly drawn) [Compound I-50au] |  |  | > 25 µM | 24.2% | 75.8%
15 | CCN1C2CCC(C2)C1COc1ccc2c(c1)CN(C1CCC(=O)NC1=O)C2=O (single isomer, unassigned) [I-255 (Isomer 1), 3-(5-((endo-2-ethyl-2-azabicyclo[2.2.1]heptan-3-yl)methoxy)-1-oxoisoindolin-2-yl)piperidine-2,6-dione] | 73.2% | 26.8% | 0.012 µM |  | 
16 | O=C1CCC(N2Cc3cc(OC[C@@H]4CCCCN4C(=O)CCC(=O)N4CCOCC4)ccc3C2=O)C(=O)N1 (stereo partly drawn) [Compound I-72eo] |  |  | > 25 µM | 4.8% | 95.2%
17 | Cc1nc[nH]c1CN1CCCC[C@@H]1COc1ccc2c(c1)CN(C1CCC(=O)NC1=O)C2=O (stereo partly drawn) [Compound I-50cs] |  |  | 4.41 µM | 71.1% | 28.9%
